The record followed here is patent publication US20100298300A1, “TRIAZOLOPYRAZINE COMPOUNDS USEFUL FOR THE TREATMENT OF DEGENERATIVE & INFLAMMATORY DISEASES” (priority 2006, published 2010).

Each structure is given as a SMILES string. Where only a bound is given, the exact number is not on record here.

Assay [1] concerns MMP1 expression by activated primary synovial fibroblasts. Description: 'MMP assay': MMP1 expression by complex trigger activated synovial fibroblasts (MMP1 ELISA). It counts as cell-based. The settings on record: Homo sapiens, Fibroblast; Table 3; RASFs, complex trigger, 48 hrs, MMP1 ELISA.
In assay [2] the test system is TNFα release by human PBMCs. As to the kind of experiment: Cytokine release by LPS stimulated human PBMCs (TNFα ELISA). It counts as cell-based. The following applies: PBMC, 24 h, Table 5, LPS 1 μg/mL.
A further assay addresses T1, MAPKAPK5 (Homo sapiens, UniProt Q8IW41).
T1 sequence (Q8IW41 1-471 isoform Q8IW41-2): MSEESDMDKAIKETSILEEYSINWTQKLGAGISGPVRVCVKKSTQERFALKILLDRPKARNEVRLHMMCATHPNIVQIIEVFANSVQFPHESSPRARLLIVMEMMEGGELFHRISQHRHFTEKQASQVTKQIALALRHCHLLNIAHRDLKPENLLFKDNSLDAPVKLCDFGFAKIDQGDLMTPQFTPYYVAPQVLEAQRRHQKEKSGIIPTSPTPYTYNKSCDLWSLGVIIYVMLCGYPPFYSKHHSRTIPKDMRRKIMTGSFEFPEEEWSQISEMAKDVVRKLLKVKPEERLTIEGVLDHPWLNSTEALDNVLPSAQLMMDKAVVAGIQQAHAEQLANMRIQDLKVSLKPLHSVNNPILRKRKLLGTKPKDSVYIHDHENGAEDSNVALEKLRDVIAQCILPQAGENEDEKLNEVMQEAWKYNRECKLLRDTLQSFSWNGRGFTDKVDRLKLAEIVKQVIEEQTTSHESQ
As to the kind of experiment: MAPKAP-K5 assay (FlashPlate kinase assay).

Description for MAPKAPK5: MAPKAP-K5 reactions are performed in FlashPlate format using 0.1 or 0.2 μCi 33P-ATP; 0.6 μM ATP; 1 mU MAPKAP-K5; 3 μM MAPKAP-K5 peptide substrate, incubated at room temperature for 30 minutes.
The MAPKAP-K5 kinase reaction is performed in a 384 well polypropylene plate (Matrix Technologies) and then transferred to a streptavidin-coated 384 well flashplate (Perkin-Elmer).
To wells containing 2 μL test compound or standard inhibitor, 13 μL Enzyme mix or diluent are added using a Hydra (Robbins Scientific).
Reactions are started by addition of 10 μL of [2,5×] substrate cocktail using a Multidrop (Thermo-Labsystems), to give final concentrations in the assay of:
Plates are incubated at room temperature for 30 minutes.
Reactions are terminated by the addition of 25 μL EDTA (50 mM) to each well using a Micro-fill (Biotek).
Reactions are transferred to a streptavidin-coated flashplate using a Zymark robotic system. Plates are incubated for 60 minutes at room temperature.
All wells are washed 3 times with 100 μl phosphate buffered saline using a Tecan plate washer.
Radioactivity is determined by scintillation counting of the flashplate (empty wells) on a Packard TopCount.
Enzyme Mix: • Enzyme • 50 mM Tris Hcl (pH 7.5) • 0.1 mM EGTA • 2 mM DTT • 1 mg/mL BSA
Reaction Buffer: • 50 mM Tris Hcl (pH 7.5) • 0.1 mM EGTA • 10 mM Magnesium acetate • 2 mM DTT

Regarding `O=C1NCc2cc(-c3cnc(Nc4ccc(F)cc4F)c4ncnn34)ccc21` [Compound 174], the EC50 in assay [1] and in assay [2] was above 1 µM each time. On MAPKAPK5, this molecule showed an IC50 above 1 µM.

With `CNCc1cc(Nc2ncc(-c3ccc4c(c3)CNC4=O)n3ncnc23)ccc1N1CCOCC1` [Compound 179], the EC50 in assay [1] and in assay [2] was above 1 µM each time. Besides, the IC50 at MAPKAPK5 fell in the range of 0.101 to 0.5 µM.

As to `CC(C)N1CCN(c2ccc(Nc3ncc(-c4ccc5c(c4)CNC5=O)n4ncnc34)cc2Cl)CC1` [Compound 180], the EC50 in assay [1] and in assay [2] was above 1 µM each time. For the same molecule, the half-maximal inhibitory concentration (IC50) on MAPKAPK5 was 0.001 to 0.1 µM.

Turning to `O=C1NCc2cc(-c3cnc(NC4CCCC4)c4ncnn34)ccc21` [Compound 181], the EC50 in assay [1] and in assay [2] was above 1 µM throughout. The IC50 against MAPKAPK5 is 0.101 to 0.5 µM.
